Laboratory results: paper PMC7612079 (Science translational medicine, 2021)

Experiments:
Format in all cases: biochemical
[1] = molecular target: T1, TANK-binding kinase 1 (Homo sapiens, UniProt Q9UHD2); assay: single-point panel of […] kinases at […]; conditions: read-out: % inhibition at 1 μM
T1 sequence (Q9UHD2 1-729): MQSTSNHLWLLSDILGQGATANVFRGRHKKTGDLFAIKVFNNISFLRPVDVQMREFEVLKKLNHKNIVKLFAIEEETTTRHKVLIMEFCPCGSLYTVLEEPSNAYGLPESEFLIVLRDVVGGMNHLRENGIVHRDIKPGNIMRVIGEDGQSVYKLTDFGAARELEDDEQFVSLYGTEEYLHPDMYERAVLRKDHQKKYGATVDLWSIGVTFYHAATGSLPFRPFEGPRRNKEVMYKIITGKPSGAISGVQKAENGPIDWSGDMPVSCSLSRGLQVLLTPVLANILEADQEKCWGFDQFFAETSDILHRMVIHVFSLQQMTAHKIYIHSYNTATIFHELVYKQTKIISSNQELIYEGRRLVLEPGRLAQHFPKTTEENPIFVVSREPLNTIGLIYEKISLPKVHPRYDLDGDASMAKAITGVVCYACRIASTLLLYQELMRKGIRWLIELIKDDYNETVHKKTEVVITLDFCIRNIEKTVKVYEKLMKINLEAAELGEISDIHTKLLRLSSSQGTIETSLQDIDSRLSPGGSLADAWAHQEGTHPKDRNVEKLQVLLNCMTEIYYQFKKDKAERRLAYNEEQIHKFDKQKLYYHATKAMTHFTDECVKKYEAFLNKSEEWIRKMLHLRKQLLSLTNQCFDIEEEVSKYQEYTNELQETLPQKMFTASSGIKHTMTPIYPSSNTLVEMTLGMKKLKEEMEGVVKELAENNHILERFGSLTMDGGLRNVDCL

[2] = molecular target: AMPK (Homo sapiens, UniProt P54646); assay: single-point panel of […] kinases at […]; conditions: read-out: % inhibition at 1 μM
AMPK, sequence (P54646 whole entry): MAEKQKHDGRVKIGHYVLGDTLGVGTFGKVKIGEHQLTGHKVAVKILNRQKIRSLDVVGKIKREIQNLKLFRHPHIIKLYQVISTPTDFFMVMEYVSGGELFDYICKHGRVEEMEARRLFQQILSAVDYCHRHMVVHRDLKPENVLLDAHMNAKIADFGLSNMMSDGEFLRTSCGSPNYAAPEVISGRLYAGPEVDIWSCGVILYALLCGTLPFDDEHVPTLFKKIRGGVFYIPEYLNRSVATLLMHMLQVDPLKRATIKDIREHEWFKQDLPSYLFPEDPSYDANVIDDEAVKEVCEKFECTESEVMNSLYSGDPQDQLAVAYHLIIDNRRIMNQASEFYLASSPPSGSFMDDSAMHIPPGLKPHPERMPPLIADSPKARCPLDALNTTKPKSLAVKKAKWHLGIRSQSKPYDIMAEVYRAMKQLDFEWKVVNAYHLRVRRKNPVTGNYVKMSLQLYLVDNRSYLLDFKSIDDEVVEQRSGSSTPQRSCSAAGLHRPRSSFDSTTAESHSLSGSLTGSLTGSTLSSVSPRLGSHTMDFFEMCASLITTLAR
AMPK, sequence (Q9Y478 2-270 partner): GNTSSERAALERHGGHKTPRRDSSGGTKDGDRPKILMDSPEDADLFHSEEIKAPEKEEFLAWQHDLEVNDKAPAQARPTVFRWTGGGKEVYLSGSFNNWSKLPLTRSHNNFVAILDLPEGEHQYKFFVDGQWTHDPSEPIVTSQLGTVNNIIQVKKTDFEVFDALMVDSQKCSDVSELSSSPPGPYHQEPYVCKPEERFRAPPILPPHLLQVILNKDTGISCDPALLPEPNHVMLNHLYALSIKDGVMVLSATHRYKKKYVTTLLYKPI
AMPK, sequence (P54619 whole entry partner): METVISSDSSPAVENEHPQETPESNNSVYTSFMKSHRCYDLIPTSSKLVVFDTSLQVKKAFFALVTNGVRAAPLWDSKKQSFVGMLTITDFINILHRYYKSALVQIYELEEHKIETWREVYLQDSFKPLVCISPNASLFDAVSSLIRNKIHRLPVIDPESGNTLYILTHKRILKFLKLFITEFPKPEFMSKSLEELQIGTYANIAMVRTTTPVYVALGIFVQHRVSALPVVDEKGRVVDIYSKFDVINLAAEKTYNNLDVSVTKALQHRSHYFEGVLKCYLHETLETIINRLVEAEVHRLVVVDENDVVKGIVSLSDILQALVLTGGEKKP

[3] = molecular target: T2, ULK2 (Homo sapiens, UniProt Q8IYT8); assay: single-point kinase panel at […]
T2 sequence (Q8IYT8 1-1036): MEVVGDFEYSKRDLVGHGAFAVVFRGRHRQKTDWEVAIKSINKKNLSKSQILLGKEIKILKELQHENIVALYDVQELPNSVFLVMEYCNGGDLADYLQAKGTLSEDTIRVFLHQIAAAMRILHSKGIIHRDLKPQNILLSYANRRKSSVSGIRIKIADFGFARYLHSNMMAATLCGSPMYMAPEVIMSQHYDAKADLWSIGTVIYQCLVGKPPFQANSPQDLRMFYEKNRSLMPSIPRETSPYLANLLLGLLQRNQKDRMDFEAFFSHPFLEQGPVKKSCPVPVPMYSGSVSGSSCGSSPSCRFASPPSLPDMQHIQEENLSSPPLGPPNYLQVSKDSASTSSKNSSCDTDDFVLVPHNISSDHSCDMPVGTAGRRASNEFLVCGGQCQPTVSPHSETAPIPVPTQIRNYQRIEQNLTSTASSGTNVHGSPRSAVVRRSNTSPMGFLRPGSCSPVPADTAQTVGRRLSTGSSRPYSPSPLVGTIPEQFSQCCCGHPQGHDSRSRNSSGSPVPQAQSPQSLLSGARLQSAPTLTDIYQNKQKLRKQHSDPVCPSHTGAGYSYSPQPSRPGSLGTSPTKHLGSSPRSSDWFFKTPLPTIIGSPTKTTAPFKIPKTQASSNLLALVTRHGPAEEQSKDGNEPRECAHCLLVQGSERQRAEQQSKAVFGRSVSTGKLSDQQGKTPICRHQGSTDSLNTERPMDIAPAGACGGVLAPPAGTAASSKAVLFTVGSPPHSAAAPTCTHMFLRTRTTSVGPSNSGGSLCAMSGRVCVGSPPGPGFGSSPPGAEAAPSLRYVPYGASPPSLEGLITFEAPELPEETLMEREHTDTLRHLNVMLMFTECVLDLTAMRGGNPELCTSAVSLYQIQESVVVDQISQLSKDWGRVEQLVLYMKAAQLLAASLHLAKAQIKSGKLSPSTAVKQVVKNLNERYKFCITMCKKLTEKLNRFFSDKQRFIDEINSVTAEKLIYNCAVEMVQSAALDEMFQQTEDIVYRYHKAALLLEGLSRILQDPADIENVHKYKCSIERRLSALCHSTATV

[4] = molecular target: T3, ULK1 (unc-51–like autophagy activating kinase 1) (Homo sapiens, UniProt O75385); assay: single-point kinase panel at […]; conditions: read-out: % inhibition at 1 μM
T3 sequence (O75385 1-1050): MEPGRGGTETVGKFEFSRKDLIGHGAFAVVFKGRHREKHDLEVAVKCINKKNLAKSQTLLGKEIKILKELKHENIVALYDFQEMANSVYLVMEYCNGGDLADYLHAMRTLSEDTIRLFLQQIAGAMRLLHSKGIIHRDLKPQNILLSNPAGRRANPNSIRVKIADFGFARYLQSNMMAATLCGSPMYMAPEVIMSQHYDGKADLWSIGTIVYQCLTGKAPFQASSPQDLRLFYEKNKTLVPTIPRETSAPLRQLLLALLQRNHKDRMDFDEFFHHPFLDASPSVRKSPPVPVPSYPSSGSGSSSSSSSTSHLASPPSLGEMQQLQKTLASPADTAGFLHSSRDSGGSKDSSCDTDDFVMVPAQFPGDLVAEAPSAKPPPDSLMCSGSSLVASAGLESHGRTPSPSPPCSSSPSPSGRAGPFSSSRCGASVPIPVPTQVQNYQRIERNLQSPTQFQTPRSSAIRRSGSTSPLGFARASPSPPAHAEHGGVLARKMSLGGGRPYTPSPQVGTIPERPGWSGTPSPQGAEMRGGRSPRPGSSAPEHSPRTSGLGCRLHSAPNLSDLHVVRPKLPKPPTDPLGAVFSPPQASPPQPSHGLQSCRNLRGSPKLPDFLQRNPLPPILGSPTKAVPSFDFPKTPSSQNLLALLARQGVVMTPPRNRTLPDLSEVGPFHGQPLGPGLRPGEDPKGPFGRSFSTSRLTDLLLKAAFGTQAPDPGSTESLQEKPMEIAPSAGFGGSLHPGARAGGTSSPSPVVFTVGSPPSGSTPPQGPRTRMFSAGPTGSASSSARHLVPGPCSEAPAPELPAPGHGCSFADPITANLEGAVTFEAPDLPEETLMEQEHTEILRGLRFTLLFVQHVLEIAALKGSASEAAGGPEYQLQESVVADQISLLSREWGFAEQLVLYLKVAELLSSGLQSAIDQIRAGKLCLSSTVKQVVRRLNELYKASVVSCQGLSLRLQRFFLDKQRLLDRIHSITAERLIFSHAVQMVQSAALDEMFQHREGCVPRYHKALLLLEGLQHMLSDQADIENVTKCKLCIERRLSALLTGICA

[5] = molecular target: T3, ULK1 (unc-51–like autophagy activating kinase 1); assay: radiometric […] kinase assay with myelin basic protein, […] ATP

Q: With `CN1CCc2cc(Nc3ncc(C4CC4)c(NCCCNC(=O)C4CCC4)n3)ccc2C1` [MRT68921] as the molecule, how does the inhibition at 1 µM [1] read?
A: Its inhibition at 1 µM is over 90%.

Q: And the inhibition at 1 µM [2]?
A: Its inhibition at 1 µM is over 90%.

Q: And the inhibition at 1 µM ([3]; read-out: % inhibition at 1 μM)?
A: Its inhibition at 1 µM is over 90%.

Q: And the inhibition at 1 µM [4]?
A: Its inhibition at 1 µM is over 90%.

Q: For MRT403, which IC50 [5] is on record?
A: Its IC50 is 1.6 nM.

Q: What about the “% inhibition at 1 μM” value [3] of the same molecule?
A: The value was over 90.
